Consider 89 molecules from a melting point compilation (Tetko et al.; mined from patent text by program, amines drawn as free bases though some values may be those of a salt).

Broadly, the melting point is the temperature of the solid-liquid transition. `Cc1ccc(C)c2c1Cc1c(O)cccc1C2=O` yielded a melting point of 172 to 178 °C. For `CCc1nc2c(cnn2CC)c(NC2CCOCC2)c1CNC(=O)c1cccc(C(=O)NCc2ccc(OC)c(-c3cccc(CN4CCCNCC4)c3)c2)c1` the value was 143 to 147 °C; for `CCCN(C)S(=O)(=O)c1cc(-n2c(=O)cc(C(F)(F)F)n(C)c2=O)ccc1Cl`, 144 to 145 °C; for `Cc1nc(C2CCCCC2)c2nc(-c3ccccc3)cc-2[nH]1`, > 280 °C. In turn, `COc1cc2c(cc1OC(C)C)-c1c(-c3cccnc3)c3c(n1CC2)C(=O)N(C(C)(C)C)CCOC3` came in with a melting point of 193 to 194 °C.

The molecule `CCOC(=O)C=Cc1ccc(C)nc1` yielded a melting point of 36 to 37 °C. Next, `COc1ccc(C=CC(C)=O)cc1`: 74 °C; `CS(=O)(=O)c1ccccc1C(=O)Cl`: 135 to 137 °C. Consider `NC(=O)c1ccc(NC2CCN(Cc3ccccc3)C2)cc1` (centres undefined), for which the melting point was in the range of 160 to 162 °C.

Regarding `C=C(Nc1nc(-c2ccccc2)c(-c2nc3ccccc3c(=O)n2-c2ccc(C)cc2)s1)c1ccco1`, the melting point lay in the range of 231 to 232 °C.

As to `CC1=CC2(C=C3CCC4C5CCC(=O)C5(C)CCC4C13C)OCCO2` (centres undefined), the melting point was 159 °C. Next, `COc1ccc(S(=O)(=O)C2(C(=O)O)CCN(Cc3cccc(OC)c3)CC2)cc1`: 130 °C; `CCC1(CCCCN2CCN(c3cccc4c3OCCO4)CC2)C(=O)Nc2cc(F)ccc21` (centres undefined): 146 to 147 °C; `CCCS(=O)(=O)c1cc([C@H]2CC[C@H](c3cc(OC)c(OC)c(OC)c3)O2)cc(OC)c1O` (relative stereo): 168 to 169 °C. In the case of `CCC(=O)NC[C@@H]1C[C@H]1c1c(F)ccc2nn(C)cc12` (relative stereo), the melting point lay in the range of 158 to 159 °C. Next, `CC(C)(C(=O)c1ccc(SCCCCS)cc1)N1CCOCC1`: 98 °C; `CCOC(=O)C(=O)c1csc(NC(=O)Nc2ccc(F)cc2)n1`: 220 to 223 °C; `O=C(O)c1ccc(CBr)c(C(F)(F)F)c1`: 136 to 140 °C. For `CCc1cc2c(s1)-n1nnnc1CN=C2c1ccccc1Cl` the value was 135 to 136 °C; for `O=C(O)c1cn(C2CC2)c2c(F)c(N3CCCC(n4ccnn4)C3)c(F)cc2c1=O` (centres undefined), 239 to 240 °C. For `COc1cc(COc2nn(-c3ccccc3)cc2/C=C/c2csc(CO)n2)ccc1OCc1nc(-c2ccc(CC(=O)O)cc2)oc1C` the value was 204 to 205 °C. With `COC(=O)c1c(N)c(-c2ccc(I)cc2)nc2ccc(F)cc12`, the melting point lay in the range of 223 to 225 °C. Next, `CCOc1cccnc1CO`: 74.5 to 76 °C. Next, `Cc1nc2c(s1)C(=O)N(C(C)(C)C)C2=O`: 106 °C; `CCOC(=O)NOC(=O)c1ccc(Cl)cc1`: 79 °C. As for `CN(CCO)C(=O)C(C)(C)NC(=O)c1cc2c(n(CC3CCCCC3)c1=O)CCCCCC2`, the melting point lay in the range of 195 to 196 °C. Next, `Oc1ccc(Cl)cc1I`: 79 to 82 °C. For `CC(C)Oc1ccc(-c2ccc(C#N)cc2)cc1C=O` the value was 94 to 96 °C; for `CC(C)c1ccc(-c2ccc(-c3cccc(C(=O)O)c3)o2)cc1`, 172 to 176 °C; for `CCc1oncc1C(=O)Nc1ccc([N+](=O)[O-])cc1`, 139 to 141 °C. Next, `CCCCOC(=O)c1c(CN2CCCCC2)nc2cc(OC)c(OC)cc2c1-c1ccc(OC)c(OC)c1`: 154 to 155 °C; `CCN(CC)CC(O)CONC(=O)NC(C)(C)C` (centres undefined): 58 to 61 °C. As to `O=c1c2cc(Oc3ccc(Cl)cc3)ccc2cnn1Cc1cccnc1`, the melting point was in the range of 150 to 152 °C. In turn, `O=C(Nc1cnccc1C(=O)O)OCc1cc2cc(-c3ccccc3)ccc2o1` showed a melting point of 236 to 239 °C.

Regarding `CNC(=O)NCCN1CCC(=C2c3sccc3CCn3ccnc32)CC1`, the melting point amounted to 159 °C. For `CC1(OCc2ccccc2)CCCC(C)(C(=O)Nc2ccccc2)O1` (centres undefined) the value was 55 to 56 °C. The molecule `COC(=O)c1cccc(C(=O)c2ccc(O)c(OC)c2)c1` registered a melting point of 133 to 134 °C. Next, `O=C(c1c(Cl)cccc1Cl)n1ccnc1-c1ccccc1`: 110 to 114 °C; `O=C1C(O)SCN1c1cccc([N+](=O)[O-])c1` (centres undefined): 129 to 131 °C; `Cc1c(Cl)nc(N2CCNCC2)nc1NC(C)C`: 199 °C. For `CCCC1=C(C(=O)OCC)C(c2ccccc2Cl)c2cn(C(=O)OC(C)(C)C)nc2N1` (centres undefined) the value was 144 to 147 °C; for `Nc1cc(C(=O)O)ccc1-c1nc(-c2ccc(C(F)(F)F)cc2)no1`, > 300 °C. Next, `COc1ccccc1N1CCN(CCn2cnc3sc(C(=O)N(C)C)c(C)c3c2=O)CC1`: 188 to 190 °C; `COc1cc(OC)c(N=C=O)c(OC)c1`: 67 to 70 °C. `CCN1CCN(c2ccc(C(=O)OC)cc2)CC1`: the melting point was in the range of 102 to 104 °C. Next, `O=C(Nc1ccc(-n2nc(C3CC3)cc2C2CC2)cc1)c1c(Cl)cncc1Cl`: 159 to 164 °C; `COCCOc1cc(-n2c(=O)cc(C(F)(F)F)n(C)c2=O)c(F)cc1Cl`: 84 to 87 °C. For `CCCCc1ccc(NC(=O)c2ccc(N)cc2)cc1` the value was 138 °C. For `CC(=NOCCOc1ccc(CC2SC(=O)NC2=O)cc1)c1ccc(-c2ccc(C)cc2)cc1` (centres undefined) the value was 184 to 186 °C. Molecule `CC(=O)Nc1ccc(-c2cc(C(=O)c3ccncc3)sc2N2CCOCC2)cc1` had a melting point of 149 °C. `c1cc2[nH]ncc2cc1OC1CCCC1` showed a melting point of 141 to 142 °C. For `Cc1cccc(C)c1N1CC(C)N(c2c(C)cccc2C)C1=NC(=O)OCc1ccccc1` (centres undefined) the value was 74 to 75 °C; for `CCOC(=O)c1cn(C2CC2)c2c(CO)c(N3CCN(C)CC3)c(F)cc2c1=O`, 216 to 218 °C. Next, `COc1cc(OC)c2sc(-c3c(F)cccc3F)nc2c1`: 136 to 138 °C. Next, `Cc1cccc(Nc2nc(-n3nc(C)cc3C)nc3ccccc23)c1`: 249 to 250 °C; `CCCCCCCCCCC(=O)C(=O)N[C@@H](CCC(=O)O)C(=O)O`: 97 to 98 °C. `O=[N+]([O-])c1cc(CO)ccc1Br` had a melting point of 61 to 62 °C. For `COc1cc2c(cc1F)CCN(Nc1ccncc1)C2` the value was 216 to 218 °C.

Molecule `Nc1cc(C(=O)OC2CCCC2)c(Cl)cc1F` showed a melting point of 61 to 62 °C.

Take `CCc1cccc(NC(=N)Nc2cccc3ccccc23)c1`: the melting point fell in the range of 96 to 98 °C.

`O=C(NCCc1cccs1)C12CC3CC(CC(O)(C3)C1)C2` registered a melting point of 118 to 119 °C. Turning to `CCOc1cncc(I)n1`, the melting point lay within 36 to 37 °C. For `CCC(=O)Nc1nc(CC(=O)N(C)c2ccc(Cl)cc2)cs1` the value was 153 to 155 °C; for `NC(=O)Cc1ccc(-c2ccc3nnn(Cc4ccc5ncccc5c4)c3n2)cc1`, 220 to 223 °C; for `ClCCNc1ccnc2cc(Cl)ccc12`, 239 to 240 °C. The molecule `OCc1nnc2n1-c1sc(Cl)cc1C(c1ccccc1Cl)=NC2` returned a melting point of 219 to 221 °C. Next, `CCCn1c(=O)nc2sc3ccccc3nc-2c1=O`: 258 °C; `ClCCCCOc1ccc(OCCCCCl)cc1`: 158 to 159 °C; `O=C1c2ccccc2Nc2ccccc2N1CCCCl`: 127 to 131 °C.

As for `O=C1CC[C@@H]([N+](=O)[O-])[C@H](c2ccc(Cl)cc2)N1` (relative stereo), the melting point fell in the range of 148 to 150 °C. Next, `COc1nc(C2CC2)nc(O)c1C`: 178 °C.

`Cc1cc(N2C(=O)N(CCCCCN3C(=O)N(c4ccc([N+](=O)[O-])c(C)c4)C(=O)C3(C)C)C(C)(C)C2=O)ccc1[N+](=O)[O-]` returned a melting point of 130 to 131 °C. For `Cc1nc(-c2ccc3c(c2)NC(=O)CO3)c(-c2ccccc2)s1` the value was 221 to 230 °C.

Regarding `COc1cc(C)nc(NC(=O)NS(=O)(=O)c2ccccc2OCCOS(C)(=O)=O)n1`, the melting point is 176 to 179 °C. `O=c1n(C2CCOC2)cc(-c2ccncc2)n1-c1ccc(F)cc1` (centres undefined) had a melting point of 132 to 134 °C. For `CCc1nc2c(N)nc3cc(OCc4ccccc4)ccc3c2s1` the value was 208 to 209 °C; for `CCn1cc(OC(=O)c2ccccc2)c(=O)c2ccccc21`, 190 to 192 °C; for `CCCN(CCC)C(=O)c1cc(C)cc(C(=O)N[C@@H](Cc2cc(F)cc(F)c2)[C@@H](O)CCN)c1`, 61 to 72 °C. For `CN(C)c1cc2c(cc1OCc1ccccc1)CCC1C2CCC2(C)C(=O)CCC12` (centres undefined) the value was 165 to 166 °C; for `O=C(N[C@H](Cc1ccccc1)C(=O)O)OCc1ccc2oc(-c3ccccc3)nc2c1`, 220 to 221 °C. For `Cc1oc(-c2ccco2)nc1COc1ccc(Cn2cc(CCC(=O)O)c(-c3ccc(F)cc3)n2)cc1` the value was 125 to 126 °C; for `Cc1nc(-c2c(Cl)cc(C(F)(F)F)cc2Cl)[nH]c1S(=O)(=O)Cl`, 227 to 230 °C; for `CCCC1(CCC(C)=O)Cc2cc(CCC(=O)O)c(Cl)c(Cl)c2C1=O` (centres undefined), 131 to 133 °C. As for `CCOC(=O)c1[nH]c2cc(F)ccc2c1NCCC(=O)c1ccccc1`, the melting point lay in the range of 265 to 270 °C. Next, `Cn1cccc1CNCC1(c2cccc(C(F)(F)F)c2)CCN(C(=O)CN2CCN(c3cnccn3)CC2)CC1`: 104 to 105 °C; `O=C(c1ccc(-c2cnc3c(c2)N(Cc2cc(F)ccc2F)CCN3)cc1)N1CCC[C@H]1CN1CCCC1`: 143 to 144 °C.

Consider `CCOC(=O)c1c(OC)cc(C(F)(F)F)nc1C(F)(F)F`, for which the melting point is 58.5 to 59.5 °C. For `CC(C)[C@H](NC(=O)OCc1ccccn1)C(=O)N[C@@H](Cc1ccccc1)C[C@H](OC=O)[C@H](Cc1ccccc1)NC(=O)[C@@H](NC(=O)OCc1ccccn1)C(C)C` the value was 206 to 207 °C. For `O=[N+]([O-])c1cc(Cl)c(Oc2ccc(Cl)c3ccccc23)c(Cl)c1` the value was 145 to 147 °C.
